Results published in patent US9833497B2, “Human originated EGF domain proteins and use of the same” (CHENGDU SOURCEBIO LIMITED-LIABILITY COMPANY, priority 2013, dated 2017).

What was measured:
Type in all cases: cell-based
E. coli DH5α = test: Antibacterial activity: MIC and growth curve against E. coli DH5α in 96-well plate; details: minimal inhibitory concentration against E. coli DH5α; 96-well plate, 5×10^5 CFU/mL, 37° C., judged after 8 h
Procedure, shortened: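 Log-phase bacteria (OD600 ~0.5) resuspended in LB at 5×10^5 CFU/mL, exposed to recombinant protein at 50, 25, 12.5 μg/mL final in triplicate, 37 °C shaking at 175 rpm. OD600 read every 30 min; MIC is lowest concentration showing no growth.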

E. coli BL21 = test: MIC against Gram-negative bacteria: E. coli BL21; details: 5×10^5 CFU/mL
Procedure, shortened: (§1)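 LB broth cultures at McFarland 0.5, spun down, resuspended, diluted to 5×10^5 CFU/mL final. Two-fold serial dilutions of purified human EGF domain proteins, triplicate. 37° C, 175 rpm shaking. Endpoint: no visible growth.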

Pseudomonas aeruginosa = test: MIC against Gram-negative bacteria: Pseudomonas aeruginosa; details: 5×10^5 CFU/mL
Procedure, shortened: as §1

Klebsiella pneumonia = test: MIC against Gram-negative bacteria: Klebsiella pneumonia; details: 5×10^5 CFU/mL
Procedure, shortened: as §1

Enterobacter cloacae = test: MIC against Gram-negative bacteria: Enterobacter cloacae; details: 5×10^5 CFU/mL
Procedure, shortened: as §1

Aeromonas hydrophila = test: MIC against Gram-negative bacteria: Aeromonas hydrophila; details: 5×10^5 CFU/mL
Procedure, shortened: as §1

Citrobacter diversus = test: MIC against Gram-negative bacteria: Citrobacter diversus; details: 5×10^5 CFU/mL
Procedure, shortened: as §1

Moraxella catarrhalis = test: MIC against Gram-negative bacteria: Moraxella catarrhalis; details: 5×10^5 CFU/mL
Procedure, shortened: as §1

Proteus mirabilis = test: MIC against Gram-negative bacteria: Proteus mirabilis; details: 5×10^5 CFU/mL
Procedure, shortened: as §1

Proteus vulgaris = test: MIC against Gram-negative bacteria: Proteus vulgaris; details: 5×10^5 CFU/mL
Procedure, shortened: as §1

Serratia marcescens = test: MIC against Gram-negative bacteria: Serratia marcescens; details: 5×10^5 CFU/mL
Procedure, shortened: as §1

[1] = E. coli BL21, 96-well plate, 37° C., 10 h
[2] = Pseudomonas aeruginosa, 96-well plate, 37° C., 10 h
[3] = Klebsiella pneumonia, 96-well plate, 37° C., 10 h
[4] = Enterobacter cloacae, 96-well plate, 37° C., 10 h
[5] = Aeromonas hydrophila, 96-well plate, 37° C., 10 h
[6] = Citrobacter diversus, 96-well plate, 37° C., 10 h
[7] = Moraxella catarrhalis, 96-well plate, 37° C., 10 h
[8] = Proteus mirabilis, 96-well plate, 37° C., 10 h
[9] = Proteus vulgaris, 96-well plate, 37° C., 10 h
[10] = Serratia marcescens, 96-well plate, 37° C., 10 h
[11] = 10 h cultivation at 37° C., two-fold serial dilution

PRT33 (ACELHTFGRTCKERCSGQEGCKSYVFCLPDPYGCSCATGWKGLQCN; listed as Homo sapiens)
12.5 µg/mL: MIC (E. coli DH5α) | MIC (μg/mL) P. aeruginosa (Pseudomonas aeruginosa; [2]) | MIC (μg/mL) K. pneumonia (Klebsiella pneumonia; [3]) | MIC (μg/mL) A. hydrophila (Aeromonas hydrophila; [5]) | MIC (μg/mL) C. diversus (Citrobacter diversus; [6]) | MIC (μg/mL) M. catarrhalis (Moraxella catarrhalis; [7]) | MIC (μg/mL) S. marcescens (Serratia marcescens; [10])
50 µg/mL: MIC (μg/mL) E. coli BL21 (E. coli BL21; [1])
25 µg/mL: MIC (μg/mL) E. cloacae (Enterobacter cloacae; [4]) | MIC (μg/mL) P. mirabilis (Proteus mirabilis; [8]) | MIC (μg/mL) P. vulgaris (Proteus vulgaris; [9])

PRT486 (EANPCKFQACNEFSECLVNPWSGEAKCRCFPGYLSVEERPCQ; listed as Homo sapiens)
50 µg/mL: MIC against E. coli BL21 (E. coli BL21; 96-well plate, 37° C., 10 h) | MIC against K. pneumonia (Klebsiella pneumonia; 96-well plate, 37° C., 10 h) | MIC against A. hydrophila (Aeromonas hydrophila; 96-well plate, 37° C., 10 h) | MIC against M. catarrhalis (Moraxella catarrhalis; 96-well plate, 37° C., 10 h) | MIC against P. vulgaris (Proteus vulgaris; 96-well plate, 37° C., 10 h)
12.5 µg/mL: MIC (E. coli DH5α) | MIC against P. aeruginosa (Pseudomonas aeruginosa; 96-well plate, 37° C., 10 h) | MIC against E. cloacae (Enterobacter cloacae; 96-well plate, 37° C., 10 h) | MIC against C. diversus (Citrobacter diversus; 96-well plate, 37° C., 10 h) | MIC against P. mirabilis (Proteus mirabilis; 96-well plate, 37° C., 10 h)
25 µg/mL: MIC against S. marcescens (Serratia marcescens; 96-well plate, 37° C., 10 h)

PRT1264 (DIDECGNELNGGCVHDCLNIPGNYRCTCFDGFMLAHDGHNCL; listed as Homo sapiens)
50 µg/mL: MIC against E. coli BL21 (E. coli BL21; [1]) | MIC against M. catarrhalis (Moraxella catarrhalis; [7]) | MIC against P. vulgaris (Proteus vulgaris; [9])
25 µg/mL: MIC against K. pneumonia (Klebsiella pneumonia; [3]) | MIC against A. hydrophila (Aeromonas hydrophila; [5])
12.5 µg/mL: MIC (E. coli DH5α) | MIC against P. aeruginosa (Pseudomonas aeruginosa; [2]) | MIC against E. cloacae (Enterobacter cloacae; [4]) | MIC against C. diversus (Citrobacter diversus; [6]) | MIC against P. mirabilis (Proteus mirabilis; [8]) | MIC against S. marcescens (Serratia marcescens; [10])

PRT1374 (GVRQCPNDCSQHGVCQDGVCICWEGYVSEDC; listed as Homo sapiens)
12.5 µg/mL: MIC against E. coli BL21 (E. coli BL21; E. coli BL21, 10 h cultivation at 37° C.) | MIC against K. pneumonia (Klebsiella pneumonia; Klebsiella pneumonia, 10 h cultivation at 37° C.) | MIC against A. hydrophila (Aeromonas hydrophila; Aeromonas hydrophila, 10 h cultivation at 37° C.) | MIC against C. diversus (Citrobacter diversus; Citrobacter diversus, 10 h cultivation at 37° C.) | MIC against M. catarrhalis (Moraxella catarrhalis; Moraxella catarrhalis, 10 h cultivation at 37° C.) | MIC against P. mirabilis (Proteus mirabilis; Proteus mirabilis, 10 h cultivation at 37° C.) | MIC against P. vulgaris (Proteus vulgaris; Proteus vulgaris, 10 h cultivation at 37° C.) | MIC against S. marcescens (Serratia marcescens; Serratia marcescens, 10 h cultivation at 37° C.)
25 µg/mL: MIC against P. aeruginosa (Pseudomonas aeruginosa; Pseudomonas aeruginosa, 10 h cultivation at 37° C.) | MIC against E. cloacae (Enterobacter cloacae; Enterobacter cloacae, 10 h cultivation at 37° C.)
50 µg/mL: MIC (E. coli DH5α)

PRT1231 (IGPSCLKFCSGRGQCTRHGCKCDPGFSGPACE; listed as Homo sapiens)
100 µg/mL: MIC against A. hydrophila (Aeromonas hydrophila; [5])
25 µg/mL: MIC against E. coli BL21 (E. coli BL21; [1]) | MIC against S. marcescens (Serratia marcescens; [10])
12.5 µg/mL: MIC (E. coli DH5α) | MIC against K. pneumonia (Klebsiella pneumonia; [3]) | MIC against M. catarrhalis (Moraxella catarrhalis; [7]) | MIC against P. vulgaris (Proteus vulgaris; [9])
50 µg/mL: MIC against P. aeruginosa (Pseudomonas aeruginosa; [2]) | MIC against E. cloacae (Enterobacter cloacae; [4]) | MIC against C. diversus (Citrobacter diversus; [6]) | MIC against P. mirabilis (Proteus mirabilis; [8])

PRT1189 (ECVPYPGCVHGSCVEPWQCNCETNWGGLLCD; listed as Homo sapiens)
50 µg/mL: MIC (E. coli DH5α) | MIC K. pneumonia (Klebsiella pneumonia; [11]) | MIC C. diversus (Citrobacter diversus; [11]) | MIC P. vulgaris (Proteus vulgaris; [11])
25 µg/mL: MIC P. aeruginosa (Pseudomonas aeruginosa; [11]) | MIC A. hydrophila (Aeromonas hydrophila; [11]) | MIC P. mirabilis (Proteus mirabilis; [11])
12.5 µg/mL: MIC E. coli BL21 (E. coli BL21; [11]) | MIC E. cloacae (Enterobacter cloacae; [11]) | MIC M. catarrhalis (Moraxella catarrhalis; [11]) | MIC S. marcescens (Serratia marcescens; [11])
